According to patent US11040031B2, “Pyrazole derivatives as MALT1 inhibitors” (Janssen Pharmaceutica NV, priority 2018, dated 2021):
Read-outs that look alike come from different tables or passages of the source.

Key:
[1] = test system: Secretion of IL10 by OCI-LY3 ABC-DLBCL cells; test: Human IL10 Mesoscale assay (OCI-LY3); type: cell-based; details: read-out: Human IL10 Mesoscale assay (OCI-LY3)
Experimental: (§1) NFKB signaling regulates the secretion of multiple cytokines, including IL6 and IL10. Secretion of the cytokines IL6 and IL10 by TMD8 or OCI-LY3 ABC-DLBCL cells was measured using a mesoscale assay.
(§2) Cell passage number should not exceed 30. Cells should be kept between 0.5-2.5 million cells per mL during culturing and cells should be supplemented every 2-3 days with fresh 50 µM beta-mercaptoenthanol. No beta-mercaptoethanol was used during the mesoscale assay.
(§3) DMSO control wells were used to determine the maximum signal (High Control (HC)). […] Compounds and cells were incubated for 24 h at 37° C. and 5% CO2 (assay volume is 150 μL). After 24 h of incubation 50 μL of the supernatant was transferred to a MSD plate (V-Plex Proinflammation Panel 1 (human) kit, Mesoscale (MSD)) and incubated for 2 h with vigorous shaking (600 rpm) at room temperature. Following incubation, plates were washed 3× with PBS+0.05% Tween-20 and 25 μL detection antibody solution (IL6 & IL10 antibodies in diluent 3 (MSD)) was added per well followed by 2 h of incubation with vigorous shaking (600 rpm) at room temperature. After 3× washes with PBS+0.05% Tween-20, plates were incubated with 150 μL 2× Read Buffer T and read on SECTOR imager.

[2] = test system: Secretion of IL6 by OCI-LY3 ABC-DLBCL cells; test: Human IL6 Mesoscale assay (OCI-LY3); type: cell-based; details: read-out: Human IL6 Mesoscale assay (OCI-LY3)
Experimental: as §1, §2, §3

[3] = molecular target: T1, full-length MALT1 protein (Strep-MALT1(1-824)-His) (Homo sapiens, UniProt Q9UDY8); test: biochemical;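 further: fluorogenic LRSR-AMC substrate cleavage by MALT1, 50 min compound preincubation then 4 h reaction at RT, 11-point dilution from 30 µM, scaled between enzyme-free and untreated enzyme controls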
T1 sequence (Q9UDY8 1-824): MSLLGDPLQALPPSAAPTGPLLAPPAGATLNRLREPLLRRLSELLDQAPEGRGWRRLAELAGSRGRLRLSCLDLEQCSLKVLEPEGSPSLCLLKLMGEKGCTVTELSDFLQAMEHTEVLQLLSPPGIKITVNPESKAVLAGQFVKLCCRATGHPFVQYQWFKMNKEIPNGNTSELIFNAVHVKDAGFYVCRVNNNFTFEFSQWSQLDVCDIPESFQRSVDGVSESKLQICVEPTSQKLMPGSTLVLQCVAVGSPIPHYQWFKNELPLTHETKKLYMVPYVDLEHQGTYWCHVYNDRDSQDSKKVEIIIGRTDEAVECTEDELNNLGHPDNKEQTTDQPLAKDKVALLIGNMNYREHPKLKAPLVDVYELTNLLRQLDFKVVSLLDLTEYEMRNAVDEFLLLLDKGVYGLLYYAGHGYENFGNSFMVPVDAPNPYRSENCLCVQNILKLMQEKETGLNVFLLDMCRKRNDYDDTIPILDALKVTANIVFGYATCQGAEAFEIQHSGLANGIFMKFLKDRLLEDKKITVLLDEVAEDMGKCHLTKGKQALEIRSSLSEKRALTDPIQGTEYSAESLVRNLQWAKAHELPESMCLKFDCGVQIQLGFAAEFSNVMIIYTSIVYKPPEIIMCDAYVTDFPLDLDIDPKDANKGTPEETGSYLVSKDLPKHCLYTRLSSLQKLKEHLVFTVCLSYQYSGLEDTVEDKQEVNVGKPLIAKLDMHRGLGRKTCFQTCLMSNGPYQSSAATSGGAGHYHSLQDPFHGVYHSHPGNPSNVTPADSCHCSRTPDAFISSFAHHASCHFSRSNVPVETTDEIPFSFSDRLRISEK

[4] = OCI-LY3 cells, 24 h incubation, supernatant, MSD V-Plex

| SMILES | IC50 [1, 4] [nM] | IC50 [2, 4] [nM] | IC50 [3] [nM] | IC50 ([1]; OCI-Ly3, 24 h) [nM] | IC50 ([2]; OCI-Ly3, 24 h) [nM] |
| --- | --- | --- | --- | --- | --- |
| N#Cc1cc(NC(=O)c2cnn(-c3cc(N)ncc3Cl)c2C(F)(F)F)cnc1-n1nccn1 [Cpd 148, 1-(2-amino-5-chloropyridin-4-yl)-N-(5-cyano-6-(2H-1,2,3-triazol-2-yl)pyridin-3-yl)-5-(trifluoromethyl)-1H-pyrazole-4-carboxamide] |  |  | 39 | 263 | 398 |
| Cc1c(F)cccc1-n1ncc(C(=O)Nc2cnc(-n3nccn3)c(Cl)c2)c1C(F)(F)F [Cpd 171, N-(5-chloro-6-(2H-1,2,3-triazol-2-yl)pyridin-3-yl)-1-(3-fluoro-2-methylphenyl)-5-(trifluoromethyl)-1H-pyrazole-4-carboxamide] | 76 | 98 | 145 |  |  |
| O=C(Nc1cnc(-n2nccn2)c(Cl)c1)c1cnn(-c2ccc(F)cc2Cl)c1C(F)(F)F [Cpd 107, 1-(2-chloro-4-fluorophenyl)-N-(5-chloro-6-(2H-1,2,3-triazol-2-yl)pyridin-3-yl)-5-(trifluoromethyl)-1H-pyrazole-4-carboxamide] | 112 | 158 | 141 |  |  |
| Cc1cc(F)ccc1-n1ncc(C(=O)Nc2cc(C#N)c(-n3nccn3)nc2C)c1C(F)(F)F [Cpd 170, N-(5-cyano-2-methyl-6-(2H-1,2,3-triazol-2-yl)pyridin-3-yl)-1-(4-fluoro-2-methylphenyl)-5-(trifluoromethyl)-1H-pyrazole-4-carboxamide] | 380 | 417 | 102 |  |  |
| N#Cc1ccc(-n2ncc(C(=O)Nc3cnc(-n4nccn4)c(C#N)c3)c2C(F)(F)F)cc1 [Cpd 169, N-(5-cyano-6-(2H-1,2,3-triazol-2-yl)pyridin-3-yl)-1-(4-cyanophenyl)-5-(trifluoromethyl)-1H-pyrazole-4-carboxamide] | 76 | 105 | 91 |  |  |
| Nc1cc(-n2ncc(C(=O)Nc3cnc(-n4nccn4)c(Cl)c3)c2C(F)(F)F)c(Cl)cn1 [Cpd 149, 1-(2-amino-5-chloropyridin-4-yl)-N-(5-chloro-6-(2H-1,2,3-triazol-2-yl)pyridin-3-yl)-5-(trifluoromethyl)-1H-pyrazole-4-carboxamide] | 155 | 166 | 85 |  |  |
| Cc1cc(F)cnc1-n1ncc(C(=O)Nc2cnc(-n3nccn3)c(C#N)c2)c1C(F)(F)F [Cpd 113, N-(5-cyano-6-(2H-1,2,3-triazol-2-yl)pyridin-3-yl)-1-(5-fluoro-3-methylpyridin-2-yl)-5-(trifluoromethyl)-1H-pyrazole-4-carboxamide] | 324 | 372 | 158 |  |  |
| Cc1nc(-n2nccn2)c(C#N)cc1NC(=O)c1cnn(-c2ccc(Cl)c(N)n2)c1C(F)(F)F [Cpd 200, 1-(6-amino-5-chloropyridin-2-yl)-N-(5-cyano-2-methyl-6-(2H-1,2,3-triazol-2-yl)pyridin-3-yl)-5-(trifluoromethyl)-1H-pyrazole-4-carboxamide] | 245 | 794 | 275 |  |  |
| N#Cc1cc(NC(=O)c2cnn(-c3c(F)cc(F)cc3F)c2C(F)(F)F)cnc1-n1nccn1 [Cpd 173, N-(5-cyano-6-(2H-1,2,3-triazol-2-yl)pyridin-3-yl)-5-(trifluoromethyl)-1-(2,4,6-trifluorophenyl)-1H-pyrazole-4-carboxamide] | 95 | 129 | 151 |  |  |

Now from value to compound:

| IC50 [1, 4] [nM] | IC50 [2, 4] [nM] | IC50 [3] [nM] | IC50 ([1]; OCI-Ly3, 24 h) [nM] | IC50 ([2]; OCI-Ly3, 24 h) [nM] | SMILES |
| --- | --- | --- | --- | --- | --- |
| 204 | 269 | 100 |  |  | CNc1nc(-n2ncc(C(=O)Nc3cnc(-n4nccn4)c(C#N)c3)c2C(F)(F)F)ccc1F [Cpd 150, N-(5-cyano-6-(2H-1,2,3-triazol-2-yl)pyridin-3-yl)-1-(5-fluoro-6-(methylamino)pyridin-2-yl)-5-(trifluoromethyl)-1H-pyrazole-4-carboxamide] |
| 110 | 138 | 234 |  |  | O=C(Nc1cnc(-n2nccn2)c(Cl)c1)c1cnn(-c2ccc(F)c(F)c2Cl)c1C(F)(F)F [Cpd 73, 1-(2-chloro-3,4-difluorophenyl)-N-(5-chloro-6-(2H-1,2,3-triazol-2-yl)pyridin-3-yl)-5-(trifluoromethyl)-1H-pyrazole-4-carboxamide] |
|  |  | 107 | 158 | 195 | Cc1cc(F)c(N)nc1-n1ncc(C(=O)Nc2cnc(-n3nccn3)c(Cl)c2)c1C(F)(F)F [Cpd 146, 1-(6-amino-5-fluoro-3-methylpyridin-2-yl)-N-(5-chloro-6-(2H-1,2,3-triazol-2-yl)pyridin-3-yl)-5-(trifluoromethyl)-1H-pyrazole-4-carboxamide] |
| 240 | 363 | 234 |  |  | Cc1nc(-n2nccn2)c(Br)cc1NC(=O)c1cnn(-c2ccc(F)c(N)n2)c1C(F)(F)F [Cpd 181, 1-(6-amino-5-fluoropyridin-2-yl)-N-(5-bromo-2-methyl-6-(2H-1,2,3-triazol-2-yl)pyridin-3-yl)-5-(trifluoromethyl)-1H-pyrazole-4-carboxamide] |
| 324 | 676 | 204 |  |  | Cc1nc(-n2nccn2)c(Cl)cc1NC(=O)c1cnn(-c2ccc(F)c(N)n2)c1C(F)(F)F [Cpd 179, 1-(6-amino-5-fluoropyridin-2-yl)-N-(5-chloro-2-methyl-6-(2H-1,2,3-triazol-2-yl)pyridin-3-yl)-5-(trifluoromethyl)-1H-pyrazole-4-carboxamide] |
| 76 | 74 | 26 |  |  | N#Cc1ccc(-n2ncc(C(=O)Nc3cnc(-n4nccn4)c(C#N)c3)c2C(F)(F)F)nc1N [Cpd 139, 1-(6-Amino-5-cyanopyridin-2-yl)-N-(5-cyano-6-(2H-1,2,3-triazol-2-yl)pyridin-3-yl)-5-(trifluoromethyl)-1H-pyrazole-4-carboxamide] |
|  |  | 35 | 26 | 46 | N#Cc1cc(NC(=O)c2cnn(-c3ccc(Cl)c(N)n3)c2C(F)(F)F)cnc1-n1nccn1 [Cpd 144, 1-(6-amino-5-chloropyridin-2-yl)-N-(5-cyano-6-(2H-1,2,3-triazol-2-yl)pyridin-3-yl)-5-(trifluoromethyl)-1H-pyrazole-4-carboxamide] |
| 46 | 78 | 74 |  |  | Cc1c(-n2ncc(C(=O)Nc3cnc(-n4nccn4)c(C#N)c3)c2C(F)(F)F)ccc(F)c1F [Cpd 168, N-(5-cyano-6-(2H-1,2,3-triazol-2-yl)pyridin-3-yl)-1-(3,4-difluoro-2-methylphenyl)-5-(trifluoromethyl)-1H-pyrazole-4-carboxamide] |
| 355 | 490 | 331 |  |  | Cc1ccc(N)nc1-n1ncc(C(=O)Nc2cnc(-n3nccn3)c(Cl)c2)c1C(F)(F)F [Cpd 185, 1-(6-amino-3-methylpyridin-2-yl)-N-(5-chloro-6-(2H-1,2,3-triazol-2-yl)pyridin-3-yl)-5-(trifluoromethyl)-1H-pyrazole-4-carboxamide] |
|  |  | 69 | 40 | 52 | Nc1nc(-n2ncc(C(=O)Nc3cnc(-n4nccn4)c(C(F)(F)F)c3)c2C(F)(F)F)ccc1F [Cpd 147, N-(6-(2H-1,2,3-triazol-2-yl)-5-(trifluoromethyl)pyridin-3-yl)-1-(6-amino-5-fluoropyridin-2-yl)-5-(trifluoromethyl)-1H-pyrazole-4-carboxamide] |
